Data reported in US11446287B2, “Compounds and methods for EP300 or CBP modulation and indications therefor” (Opna Immuno-Oncology SA, priority 2019, dated 2022).

biological target: T1, Recombinant human BRD4 containing dual bromodomains (BRD4-BD12 (1-477)) (Homo sapiens, UniProt O60885); experiment: BRD4 Alphascreen binding assay
T1 construct: Recombinant human BRD4 containing dual bromodomains (BRD4-BD12 (1-477)); made in house; host or cells: E. coli BL21-CodonPlus (DE3), modified pET vector
How it was run: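 AlphaScreen proximity between Ni-chelate-bound BRD4-BD12 (1-477) and streptavidin-captured H4 K5/K8/K12/K16-acetyl peptide measured after 1 h room-temperature compound incubation and 30 min with 7.5 μg/ml beads. Buffer: 50 mM HEPES pH 7.5, 50 mM NaCl, 0.01% BSA, 0.01% Triton X-100; data plate-normalized and four-parameter fit for IC50.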

Compound	IC50 [µM]
Cc1noc(C)c1-c1cnc2c(c1)c(-c1c(Cl)cc(C(=O)O)cc1OC(F)(F)F)cn2[C@H]1CCOC1 [P-0346, (S)-3-chloro-4-(5-(3,5-dimethylisoxazol-4-yl)-1-(tetrahydrofuran-3-yl)-1H-pyrrolo[2,3-b]pyridin-3-yl)-5-(trifluoromethoxy)benzoic acid]	8 to 1000
Cc1noc(C)c1-c1cnc2c(c1)c(-c1c(Cl)cc(C(=O)O)cc1OC(C)C)cn2C1CCOCC1 [P-0372, 3-chloro-4-(5-(3,5-dimethylisoxazol-4-yl)-1-(tetrahydro-2H-pyran-4-yl)-1H-pyrrolo[2,3-b]pyridin-3-yl)-5-isopropoxybenzoic acid]	1 to 8
Cc1noc(C)c1-c1cnc2c(c1)c(-c1ccc(C(=O)O)cc1OCC(F)F)cn2-c1cnc(N2CCC2)nc1 [P-0328, 4-(1-(2-(azetidin-1-yl)pyrimidin-5-yl)-5-(3,5-dimethylisoxazol-4-yl)-1H-pyrrolo[2,3-b]pyridin-3-yl)-3-(2,2-difluoroethoxy)benzoic acid]	8 to 1000
Cc1noc(C)c1-c1cnc2c(c1)c(-c1c(Cl)cc(C(=O)O)cc1OC1CC1)cn2C1CCOCC1 [P-0381, 3-chloro-5-cyclopropoxy-4-(5-(3,5-dimethylisoxazol-4-yl)-1-(tetrahydro-2H-pyran-4-yl)-1H-pyrrolo[2,3-b]pyridin-3-yl)benzoic acid]	1 to 8
Cc1noc(C)c1-c1cnc2c(c1)c(-c1ccc(C(=O)O)cc1OC(F)(F)F)cn2C1CCC1 [P-0378, 4-(1-cyclobutyl-5-(3,5-dimethylisoxazol-4-yl)-1H-pyrrolo[2,3-b]pyridin-3-yl)-3-(trifluoromethoxy)benzoic acid]	0.0001 to 1
Cc1noc(C)c1-c1cnc2c(c1)c(-c1c(Cl)cc(C(=O)O)cc1OCC(F)F)cn2-c1ccccc1 [P-0332, 3-chloro-5-(2,2-difluoroethoxy)-4-(5-(3,5-dimethylisoxazol-4-yl)-1-phenyl-1H-pyrrolo[2,3-b]pyridin-3-yl)benzoic acid]	1 to 8
Cc1noc(C)c1-c1cnc2c(c1)c(-c1c(Cl)cc(C(=O)O)cc1OC1CCC1)cn2C1CCOCC1 [P-0358, 3-chloro-5-cyclobutoxy-4-(5-(3,5-dimethylisoxazol-4-yl)-1-(tetrahydro-2H-pyran-4-yl)-1H-pyrrolo[2,3-b]pyridin-3-yl)benzoic acid]	1 to 8
Cc1noc(C)c1-c1cnc2c(c1)c(-c1c(F)cc(C(=O)O)cc1OCC(F)F)cn2-c1cnc(N2CCC2)nc1 [P-0348, 4-(1-(2-(azetidin-1-yl)pyrimidin-5-yl)-5-(3,5-dimethylisoxazol-4-yl)-1H-pyrrolo[2,3-b]pyridin-3-yl)-3-(2,2-difluoroethoxy)-5-fluorobenzoic acid]	8 to 1000
Cc1noc(C)c1-c1cnc2c(c1)c(-c1c(Cl)cc(C(=O)O)cc1OCC(F)F)cn2C1CCOCC1 [P-0359, 3-chloro-5-(2,2-difluoroethoxy)-4-(5-(3,5-dimethylisoxazol-4-yl)-1-(tetrahydro-2H-pyran-4-yl)-1H-pyrrolo[2,3-b]pyridin-3-yl)benzoic acid]	8 to 1000
Cc1noc(C)c1-c1cnc2c(c1)c(-c1c(Cl)cc(C(=O)O)cc1OC(F)(F)F)cn2C(C1CCC1)C1CCC1 [P-0380, 3-chloro-4-(1-(dicyclobutylmethyl)-5-(3,5-dimethylisoxazol-4-yl)-1H-pyrrolo[2,3-b]pyridin-3-yl)-5-(trifluoromethoxy)benzoic acid]	8 to 1000
Cc1noc(C)c1-c1cnc2c(c1)c(-c1ccc(C(=O)O)cc1Cl)cn2C(c1ccccn1)C1CCCC1 (stereo not drawn) [P-0027, 3-chloro-4-(1-(cyclopentyl(pyridin-2-yl)methyl)-5-(3,5-dimethylisoxazol-4-yl)-1H-pyrrolo[2,3-b]pyridin-3-yl)benzoic acid]	1 to 8
Cc1noc(C)c1-c1cnc2c(c1)c(-c1ccc(C(=O)O)cc1OC1CCC1)cn2-c1ncccc1C#N [P-0334, 4-(1-(3-cyanopyridin-2-yl)-5-(3,5-dimethylisoxazol-4-yl)-1H-pyrrolo[2,3-b]pyridin-3-yl)-3-cyclobutoxybenzoic acid]	8 to 1000
Cc1noc(C)c1-c1cnc2c(c1)c(-c1ccc(C(=O)O)cc1OCC(F)F)cn2-c1cnc(C2CC2)nc1 [P-0387, 4-(1-(2-cyclopropylpyrimidin-5-yl)-5-(3,5-dimethylisoxazol-4-yl)-1H-pyrrolo[2,3-b]pyridin-3-yl)-3-(2,2-difluoroethoxy)benzoic acid]	8 to 1000
Cc1noc(C)c1-c1cnc2c(c1)c(-c1c(Cl)cc(C(=O)O)cc1OCC(F)F)cn2-c1cnc(N2CCC2)nc1 [P-0331, 4-(1-(2-(azetidin-1-yl)pyrimidin-5-yl)-5-(3,5-dimethylisoxazol-4-yl)-1H-pyrrolo[2,3-b]pyridin-3-yl)-3-chloro-5-(2,2-difluoroethoxy)benzoic acid]	0.0001 to 1
Cc1noc(C)c1-c1cnc2c(c1)c(-c1ccc(C(=O)O)cc1OC(F)(F)F)cn2C1(C)CCOC1 (stereo not drawn) [P-0383, 4-(5-(3,5-dimethylisoxazol-4-yl)-1-(3-methyltetrahydrofuran-3-yl)-1H-pyrrolo[2,3-b]pyridin-3-yl)-3-(trifluoromethoxy)benzoic acid]	8 to 1000
CCOc1cc(C(=O)O)c(F)cc1-c1cn(C2CCOCC2)c2ncc(-c3c(C)noc3C)cc12 [P-0375, 4-(5-(3,5-dimethylisoxazol-4-yl)-1-(tetrahydro-2H-pyran-4-yl)-1H-pyrrolo[2,3-b]pyridin-3-yl)-5-ethoxy-2-fluorobenzoic acid]	8 to 1000
Cc1noc(C)c1-c1cnc2c(c1)c(-c1ccc(C(=O)O)c(O)c1)cn2C(c1ccccn1)C1CCCC1 (stereo not drawn) [P-0030, 4-(1-(cyclopentyl(pyridin-2-yl)methyl)-5-(3,5-dimethylisoxazol-4-yl)-1H-pyrrolo[2,3-b]pyridin-3-yl)-2-hydroxybenzoic acid]	8 to 1000
Cc1noc(C)c1-c1cnc2c(c1)c(-c1ccc(C(=O)O)cc1OC(F)(F)F)c(C)n2-c1ncccc1C#N [P-0345, 4-(1-(3-cyanopyridin-2-yl)-5-(3,5-dimethylisoxazol-4-yl)-2-methyl-1H-pyrrolo[2,3-b]pyridin-3-yl)-3-(trifluoromethoxy)benzoic acid]	8 to 1000
Cc1nn(C(F)F)cc1-n1cc(-c2ccc(C(=O)O)cc2OCC(F)F)c2cc(-c3c(C)noc3C)cnc21 [P-0349, 3-(2,2-difluoroethoxy)-4-(1-(1-(difluoromethyl)-3-methyl-1H-pyrazol-4-yl)-5-(3,5-dimethylisoxazol-4-yl)-1H-pyrrolo[2,3-b]pyridin-3-yl)benzoic acid]	8 to 1000
Cc1noc(C)c1-c1cnc2c(c1)c(-c1ccc(C(=O)O)cc1OC(F)(F)F)cn2-c1cnc(N(C)C)nc1 [P-0321]	1 to 8
Cc1cc(-c2cn(C(c3ccccn3)C3CCCC3)c3ncc(-c4c(C)noc4C)cc23)ccc1C(=O)O (stereo not drawn) [P-0028, 4-(1-(cyclopentyl(pyridin-2-yl)methyl)-5-(3,5-dimethylisoxazol-4-yl)-1H-pyrrolo[2,3-b]pyridin-3-yl)-2-methylbenzoic acid]	1 to 8
Cc1noc(C)c1-c1cnc2c(c1)c(-c1c(Cl)cc(C(=O)O)cc1OCC(F)F)cn2[C@H]1CCOC1 [P-0333, (S)-3-chloro-5-(2,2-difluoroethoxy)-4-(5-(3,5-dimethylisoxazol-4-yl)-1-(tetrahydrofuran-3-yl)-1H-pyrrolo[2,3-b]pyridin-3-yl)benzoic acid]	8 to 1000
Cc1noc(C)c1-c1cnc2c(c1)c(-c1ccc(C(=O)O)cc1OC(C)C)cn2-c1ncccc1C#N [P-0336, 4-(1-(3-cyanopyridin-2-yl)-5-(3,5-dimethylisoxazol-4-yl)-1H-pyrrolo[2,3-b]pyridin-3-yl)-3-isopropoxybenzoic acid]	8 to 1000
Cc1noc(C)c1-c1cnc2c(c1)c(-c1ccc(C(=O)O)cc1OC(F)(F)F)cn2-c1cnn(C)c1 [P-0318, 4-(5-(3,5-dimethylisoxazol-4-yl)-1-(1-methyl-1H-pyrazol-4-yl)-1H-pyrrolo[2,3-b]pyridin-3-yl)-3-(trifluoromethoxy)benzoic acid]	0.0001 to 1
CCOc1cc(C(=O)O)c(F)cc1-c1cn([C@H]2CCOC2)c2ncc(-c3c(C)noc3C)cc12 [P-0360, (S)-4-(5-(3,5-dimethylisoxazol-4-yl)-1-(tetrahydrofuran-3-yl)-1H-pyrrolo[2,3-b]pyridin-3-yl)-5-ethoxy-2-fluorobenzoic acid]	8 to 1000
Cc1noc(C)c1-c1cnc2c(c1)c(-c1ccc(C(=O)O)cc1OC1CC1)cn2-c1ncccc1C#N [P-0337, 4-(1-(3-cyanopyridin-2-yl)-5-(3,5-dimethylisoxazol-4-yl)-1H-pyrrolo[2,3-b]pyridin-3-yl)-3-cyclopropoxybenzoic acid]	8 to 1000
Cc1noc(C)c1-c1cnc2c(c1)c(-c1ccc(C(=O)O)cc1OC(F)(F)F)cn2C1(C)CCOCC1 [P-0385, 4-(5-(3,5-dimethylisoxazol-4-yl)-1-(4-methyltetrahydro-2H-pyran-4-yl)-1H-pyrrolo[2,3-b]pyridin-3-yl)-3-(trifluoromethoxy)benzoic acid]	8 to 1000
Cc1noc(C)c1-c1cnc2c(c1)c(-c1ccc(C(=O)O)cc1OC(F)(F)F)cn2C1(CC#N)CCC1 [P-0335, 4-(1-(1-(cyanomethyl)cyclobutyl)-5-(3,5-dimethylisoxazol-4-yl)-1H-pyrrolo[2,3-b]pyridin-3-yl)-3-(trifluoromethoxy)benzoic acid]	8 to 1000
Cc1noc(C)c1-c1ccc2c(c1)c(-c1ccc(C(=O)O)cc1OC(F)(F)F)cn2C(C1CC1)C1CC1 [P-0344, 4-(1-(dicyclopropylmethyl)-5-(3,5-dimethylisoxazol-4-yl)-1H-indol-3-yl)-3-(trifluoromethoxy)benzoic acid]	8 to 1000
CCOc1cc(C(=O)O)nc(OCC)c1-c1cn(C2CCOCC2)c2ncc(-c3c(C)noc3C)cc12 [P-0373, 5-(5-(3,5-dimethylisoxazol-4-yl)-1-(tetrahydro-2H-pyran-4-yl)-1H-pyrrolo[2,3-b]pyridin-3-yl)-4,6-diethoxypicolinic acid]	8 to 1000
